Our source for the TGI values is PubChem BioAssay (NCI).

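Step 1: Grow cells in 96-well plates. Step 2: Expose to compound for 48 hours at 5 concentrations. Step 3: Interpolate endpoints linearly; if unreached, use highest concentration. TGI denotes the concentration required for complete inhibition of growth.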 Peptide text beside a SMILES is read from it. * marks the point of attachment. Cbz = O=C(OCc1ccccc1)* Bounds are passed on as bounds.

What all share (experiment): inhibition of tumour cell growth, NCI panel, 48 h
Experiment [1] relates to HOP-62 NSCLC.
Experiment [2] concerns T-47D breast.
Experiment [3] concerns PC-3 prostate.
Experiment [4] relates to CCRF-CEM leukemia.
The subject of experiment [5] is K-562 leukemia.
In experiment [6] the test system is SF-539 CNS.
For experiment [7], the system named is SF-268 CNS.
Experiment [8] has as its system HS 578T breast.
Experiment [9] has as its system UACC-257 melanoma.
In experiment [10] the test system is MOLT-4 leukemia.
Experiment [11] has as its system TK-10 renal.
Experiment [12] deals with SK-OV-3 ovarian.
The subject of experiment [13] is HOP-92 NSCLC.
Experiment [14] relates to 786-0 renal.
In experiment [15] the test system is HCT-15 colon.
Experiment [16] has as its system DU-145 prostate.
The test system of experiment [17] is RXF 393 renal.
Experiment [18] relates to A498 renal.
The test system of experiment [19] is NCI-H226 lung.

As for `CCOC(=O)/C=C(\C(=O)OCC)n1cc(C)c(=O)n(Cc2cn(COCCOC(C)=O)nn2)c1=O`, the TGI was 38.7 µM in [1]; above 100 µM in experiment [2]; 38.6 µM in experiment [3]; 5.95 µM in experiment [4]; above 100 µM in experiment [5]; 9.74 µM in [6]. Also, the TGI in experiment [7] was 31.3 µM; in experiment [8], 46.1 µM; in [9], 33.7 µM; in experiment [10], 22 µM; in experiment [11], 15.9 µM; in [12] it was above 100 µM. The TGI in [13] is 3.91 µM; in experiment [14], above 100 µM; in experiment [15], 55.4 µM; in experiment [16] it was above 100 µM; in experiment [17], 93.2 µM.

As to `CN(C)c1ccc(C2=C([O-])c3cc(-[n+]4ccccc4)ccc3C2=O)cc1`, the TGI in [1], in experiment [3], in experiment [4], in experiment [5], in experiment [6] and in [7] was above 100 µM in each case. In addition, the TGI in experiment [8], in [9], in [10], in experiment [18], in [19] and in experiment [11] was above 100 µM each time. The TGI in experiment [13], in experiment [14], in [15], in [16] and in experiment [17] was above 100 µM in each case.

Consider `C=CCc1cccc(/C(O)=C/C(=O)/C=C/c2ccccc2Cl)c1O`, for which the TGI in experiment [1] was 61.2 µM; in experiment [2], above 100 µM; in [3], 85 µM; in experiment [4] it was 95.1 µM; in experiment [5], above 25.2 µM; in experiment [6] it was 72 µM. The TGI is above 100 µM in experiment [7]; above 70.4 µM in experiment [9]; 15.6 µM in experiment [10]; 45 µM in experiment [18]; above 75.6 µM in [19]; above 100 µM in experiment [11]. Besides, the TGI in [12] was 97.1 µM; in experiment [13], 55.2 µM; in experiment [14] it was above 71.6 µM; in experiment [15], above 100 µM; in experiment [16], above 100 µM; in experiment [17], 75.8 µM.

Regarding `CCOC(=O)CCC(NC(=O)CNC(=O)CNC(=O)C(CCC(=O)OCC)NC(=O)C(CCC(=O)OCC)NC(=O)C(CCC(=O)OCC)NC(=O)OCc1ccccc1)C(=O)NC(CCC(=O)OCC)C(=O)NC(CCC(=O)OCC)C(=O)OCC` (stereo not drawn) (Cbz-E(OEt)E(OEt)E(OEt)GGE(OEt)E(OEt)E(OEt)-OEt; configuration not given here), the TGI in experiment [3], in experiment [4], in [7], in experiment [8], in [9] and in [10] was above 75 µM each time. The TGI in experiment [11], in experiment [12], in experiment [14], in experiment [15], in experiment [16] and in experiment [17] was above 75 µM in each case.

On to `CN1C(CC(O)c2ccccc2)CCCC1CC(O)(c1ccccc1)c1ccccc1` (stereo not drawn), for which the TGI was found to be 27.6 µM in experiment [1]; 52.7 µM in experiment [2]; 34.7 µM in [3]; 58.1 µM in [4]; 94.8 µM in experiment [5]; 27.3 µM in experiment [6]. The TGI is 43.7 µM in [7]; 33.4 µM in experiment [9]; 54.9 µM in experiment [10]; 38.5 µM in experiment [19]; 38.8 µM in experiment [11]; 38.8 µM in [12]. For the same compound, the TGI stood at 29.1 µM in [14], 34.4 µM in experiment [15], 45.6 µM in experiment [16] and 28.9 µM in experiment [17].

In the case of `CCOC(=O)COc1cc(-c2ccccc2)nc2cc(F)ccc12`, the TGI in [1], in experiment [2], in [3], in experiment [4], in experiment [5] and in [6] was above 100 µM in each case. Further, the TGI in experiment [7], in [9], in experiment [10], in experiment [18], in [19] and in [11] was above 100 µM in each case. Besides, the TGI in experiment [12], in experiment [13], in [14], in experiment [15], in experiment [16] and in [17] was above 100 µM in each case.

Consider `O=C1/C(=C\c2cccc(Oc3ccccc3)c2)SC(c2ccccc2)N1Cc1ccccc1` (stereo not drawn), for which the TGI was above 100 µM in experiment [1]; 98.3 µM in experiment [2]; 45.5 µM in [4]; above 100 µM in experiment [5]; 37.3 µM in [6]; above 100 µM in experiment [7]. Moreover, the TGI in [8] is 82.5 µM; in experiment [9], 87.9 µM; in [10] it was 75.7 µM; in experiment [18] it was above 100 µM; in [19], 90.9 µM; in experiment [11], 99.5 µM. The TGI in [12] was 71.9 µM; in experiment [13] it was 60 µM; in experiment [14], above 100 µM; in experiment [15], above 100 µM; in [16], above 100 µM; in [17], 64 µM.

In the case of `COc1ccc(OC)c2c1ccc1c(C)c3ccccc3c(C)c12`, the TGI in experiment [1], in experiment [2], in experiment [3], in experiment [4], in experiment [5] and in experiment [7] was above 100 µM each time. Moreover, the TGI in [9], in experiment [10], in [18], in experiment [19], in experiment [11] and in experiment [14] was above 100 µM each time. In addition, the TGI in [15] and in experiment [16] was above 100 µM in each case.

On to `O=C1C2CCCCC2C(=O)N1n1c(Cc2ccccc2)n[nH]c1=O` (stereo not drawn), for which the TGI in experiment [1], in experiment [2], in experiment [3], in experiment [4], in experiment [5] and in [6] was above 100 µM each time. Further, the TGI in experiment [7], in [8], in [9], in experiment [10], in experiment [18] and in [19] was above 100 µM in each case. In addition, the TGI in experiment [11], in experiment [12], in experiment [13], in [14], in [15] and in experiment [17] was above 100 µM in each case.

Regarding `O=C(O)c1ccc2[nH]c(=O)oc2c1`, the TGI in experiment [1], in experiment [3], in experiment [4], in experiment [5], in experiment [6] and in [7] was above 100 µM throughout. For the same compound, the TGI in [8], in experiment [9], in [10], in [18], in [19] and in experiment [11] was above 100 µM throughout. Moreover, the TGI in [12], in experiment [14], in experiment [15], in experiment [16] and in experiment [17] was above 100 µM each time.

For `OCCCN=C1N=C(Cl)/C(=C\c2ccccc2)N1`, the TGI in experiment [2], in [4], in experiment [5], in experiment [6], in experiment [7] and in experiment [8] was above 100 µM throughout. Further, the TGI in experiment [9], in experiment [10], in experiment [18], in experiment [19], in [11] and in experiment [12] was above 100 µM throughout. The TGI in [13], in experiment [14], in [15], in experiment [16] and in experiment [17] was above 100 µM throughout.

Take `FC(F)(F)c1nc2c(ccc3[nH]c4c(-c5ccccc5)nccc4c32)[nH]1`: the TGI was above 100 µM in experiment [1]; above 69.1 µM in experiment [4]; above 100 µM in experiment [5]; above 100 µM in experiment [6]; above 100 µM in experiment [7]; above 100 µM in experiment [9]. The TGI in experiment [10], in [18], in [19], in [11], in experiment [12] and in experiment [13] was above 100 µM each time. The TGI in experiment [14], in experiment [15] and in [17] was above 100 µM each time.

Take `CC(=O)NC(CCCCN(Cc1ccccc1)C(=O)N(C)N=O)C(=O)NCc1ccccc1` (stereo not drawn): the TGI in [1], in [4], in [5], in experiment [6], in experiment [7] and in [9] was above 100 µM in each case. Besides, the TGI in experiment [10], in experiment [18], in experiment [19], in [11], in experiment [12] and in experiment [13] was above 100 µM throughout. Moreover, the TGI in experiment [14], in experiment [15] and in experiment [17] was above 100 µM in each case.

Turning to `COc1cccc(C=C(C#N)C#N)c1OC`, the TGI in experiment [1], in experiment [3], in [4], in [5], in [6] and in experiment [7] was above 100 µM throughout. In addition, the TGI in experiment [9], in experiment [10], in experiment [19], in experiment [11], in experiment [12] and in experiment [13] was above 100 µM throughout. The TGI in [14], in [15], in [16] and in [17] was above 100 µM each time.

With `COc1ccc([C@H]2[C@@H]3CCc4ccccc4C3=NN2C(N)=S)cc1OC`, the TGI in [1] is above 100 µM; in experiment [4], above 100 µM; in experiment [5], 66.9 µM; in [6], above 100 µM; in experiment [7] it was above 100 µM; in [9] it was above 100 µM. The TGI in [10], in [18], in [19], in [11], in experiment [12] and in experiment [13] was above 100 µM each time. Also, the TGI in experiment [14], in experiment [15] and in experiment [17] was above 100 µM in each case.

Take `O=C(Cn1c2c(c3ccccc31)CCCC2)N1CCOCC1`: the TGI in experiment [1], in [3], in experiment [4], in [5], in experiment [6] and in experiment [7] was above 100 µM in each case. Further, the TGI in [8], in experiment [9], in experiment [10], in experiment [18], in experiment [11] and in experiment [12] was above 100 µM each time. Besides, the TGI in experiment [13], in experiment [14] and in [15] was above 100 µM each time.
